How the values were obtained:
[1] = system: production of PG 12 in vascular tissues; experiment: Effect on production of PG I2 in vascular tissues (platelet lysate or aorta microsome); assay type: biochemical; details: pig's blood platelet lysate or microsome obtained from pig's aorta
[2] = system: spontaneously hypertensive rats (SHR); experiment: Blood-pressure lowering effect after oral administration to SHR; assay type: in vivo; details: administered orally, dose of 50 mg/kg
SHR = experiment: Hypotensive activity after repeated administration (tolerance); assay type: in vivo, rats; details: administered to SHR for 15 consecutive days

SMILES | increase in the formation of PG I2 as compared with a control group [1] | decrease in the blood pressure [2] | duration of blood-pressure lowering effect [2] | potency of hypotensive activity during repeated administration (SHR)
CCCCCCCCCC[C@H](CN(CC)C(=O)N1Cc2ccccc2C[C@H]1C(=O)O)C(=O)O [(3S)-2-[N-((2R)-2-carboxy-n-dodecyl)-N-ethylcarbamoyl]-1,2,3,4-tetrahydroisoquinoline-3-carboxylic acid] | 62% |  |  | 
CCOC(=O)[C@H](CCc1ccccc1)CN(CC)C(=O)N1Cc2ccccc2C[C@H]1C(=O)O [(3S)-2-[N-((2R)-2-ethoxycarbonyl-4-phenyl-n-butyl)-N-ethylcarbamoyl]-1,2,3,4-tetrahydroisoquinoline-3-carboxylic acid] |  | about 35 mmHg | more than 6 hours | 
CCCCCCCC[C@H](CN(CC)C(=O)N1Cc2ccccc2C[C@H]1C(=O)O)C(=O)OCC [calcium (3S)-2-[N-((2R)-2-ethoxycarbonyl-n-decyl)-N-ethylcarbamoyl] - 1,2,3,4-tetrahydro-isoquinoline-3-carboxylate] |  | about 35 mmHg | more than 6 hours | almost the same potency of its hypotensive activity
